Holding throughout (type): in vivo
Experiment [1] concerns Spodoptera littoralis (Egyptian cotton leafworm). Put plainly: Spodoptera littoralis (Egyptian cotton leafworm) mortality, sprayed cotton leaf discs. The following applies: foliar, 72 h, 200 ppm spray on cotton leaf discs, L1 larvae, mortality 3 DAT.
Experiment [2] concerns Plutella xylostella (Diamond back moth). Kind of experiment: Plutella xylostella (Diamond back moth) larval mortality, artificial diet in 24-well MTP. Particulars: 144 h, application rate 200 ppm (concentration in well 18 ppm), L2 larvae, larval mortality after 6 days.
Experiment [3] concerns Thrips tabaci (Onion thrips). Kind of experiment: Thrips tabaci (Onion thrips) mortality, sprayed sunflower leaf discs. The following applies: foliar, 168 h, 200 ppm spray on sunflower leaf discs, mixed ages, mortality after 7 days.
The test system of experiment [4] is Diabrotica balteata (Corn root worm). Put plainly: Diabrotica balteata (Corn root worm) larval mortality, artificial diet in 24-well MTP. Particulars: 120 h, application rate 200 ppm (concentration in well 18 ppm), L2 larvae, larval mortality after 5 days.

What is called pest or weed control is how far the test organism was held down. Low values mean weak suppression, high ones strong suppression.

Regarding `O=C(Nc1cccc(C(=O)Nc2c(Br)cc(C(F)(C(F)(F)F)C(F)(F)F)cc2OC(F)F)c1F)c1ccccc1C(F)(F)F` [Compound 34], the pest or weed control at 200 ppm in experiment [1], in experiment [2] and in experiment [3] was not below 80% throughout.

`O=C(Nc1cccc(C(=O)Nc2c(Br)cc(C(F)(C(F)(F)F)C(F)(F)F)cc2OC(F)F)c1F)c1cc(C(F)(F)F)ccc1F` [Compound 42]: the pest or weed control at 200 ppm in experiment [1], in experiment [2], in experiment [4] and in experiment [3] was not below 80% throughout.

Consider `O=C(Nc1cccc(C(=O)Nc2c(Cl)cc(C(F)(C(F)(F)F)C(F)(F)F)cc2OC(F)F)c1F)c1cc(Cl)ccc1F` [Compound 55], for which the pest or weed control at 200 ppm in experiment [1], in experiment [2], in experiment [4] and in experiment [3] was not below 80% in each case.

Regarding `COc1ccccc1C(=O)Nc1cccc(C(=O)Nc2c(Br)cc(C(F)(C(F)(F)F)C(F)(F)F)cc2OC(F)F)c1OC` [Compound 58], the pest or weed control at 200 ppm in experiment [1], in experiment [2], in experiment [4] and in experiment [3] was not below 80% each time.

On to `O=C(Nc1cccc(C(=O)Nc2c(Cl)cc(C(F)(C(F)(F)F)C(F)(F)F)cc2OC(F)F)c1F)c1ccccc1OC(F)(F)F` [Compound 65], for which the pest or weed control at 200 ppm in experiment [1] is not below 80%.

For `O=C(Nc1cccc(C(=O)Nc2c(Cl)cc(C(F)(C(F)(F)F)C(F)(F)F)cc2OC(F)F)c1F)c1ccccc1C(F)(F)F` [Compound 72], the pest or weed control at 200 ppm in experiment [1] and in experiment [2] was not below 80% throughout.

On to `COc1c(NC(=O)c2ccccc2F)cccc1C(=O)Nc1c(Cl)cc(C(F)(C(F)(F)F)C(F)(F)F)cc1OC(F)F` [Compound 75], for which the pest or weed control at 200 ppm in experiment [1], in experiment [2] and in experiment [3] was not below 80% in each case.

In the case of `O=C(Nc1cccc(C(=O)Nc2c(Cl)cc(C(F)(C(F)(F)F)C(F)(F)F)cc2OC(F)F)c1F)c1cc(C(F)(F)F)ccc1F` [Compound 80], the pest or weed control at 200 ppm in experiment [1], in experiment [2], in experiment [4] and in experiment [3] was not below 80% throughout.

For `COc1c(NC(=O)c2cc(Cl)ccc2F)cccc1C(=O)Nc1c(Cl)cc(C(F)(C(F)(F)F)C(F)(F)F)cc1OC(F)F` [Compound 85], in experiment [1], the pest or weed control at 200 ppm was not below 80%.

Consider `COc1c(NC(=O)c2ccc(F)c(C(F)(F)F)c2)cccc1C(=O)Nc1c(Cl)cc(C(F)(C(F)(F)F)C(F)(F)F)cc1OC(F)F` [Compound 88], for which the pest or weed control at 200 ppm in experiment [1], in experiment [2] and in experiment [3] was not below 80% each time.

Consider `COc1c(NC(=O)c2ccccc2OC(F)(F)F)cccc1C(=O)Nc1c(Cl)cc(C(F)(C(F)(F)F)C(F)(F)F)cc1OC(F)F` [Compound 90], for which the pest or weed control at 200 ppm in experiment [1], in experiment [2], in experiment [4] and in experiment [3] was not below 80% throughout.

Consider `COc1ccccc1C(=O)Nc1cccc(C(=O)Nc2c(Cl)cc(C(F)(C(F)(F)F)C(F)(F)F)cc2OC(F)F)c1OC` [Compound 91], for which the pest or weed control at 200 ppm in experiment [1], in experiment [2] and in experiment [4] was not below 80% each time.

For `COc1c(NC(=O)c2cc(C(F)(F)F)ccc2F)cccc1C(=O)Nc1c(Cl)cc(C(F)(C(F)(F)F)C(F)(F)F)cc1OC(F)F` [Compound 98], the pest or weed control at 200 ppm in experiment [1] is not below 80%.

`CCN(C(=O)c1ccccc1OC(F)(F)F)c1cccc(C(=O)Nc2c(Cl)cc(C(F)(C(F)(F)F)C(F)(F)F)cc2OC(F)F)c1F` [Compound 118]: the pest or weed control at 200 ppm in experiment [1], in experiment [2] and in experiment [4] was not below 80% each time.

For `CCN(C(=O)c1ccccc1C(F)(F)F)c1cccc(C(=O)Nc2c(Cl)cc(C(F)(C(F)(F)F)C(F)(F)F)cc2OC(F)F)c1F` [Compound 121], the pest or weed control at 200 ppm in experiment [1], in experiment [2], in experiment [4] and in experiment [3] was not below 80% each time.

Regarding `CCN(C(=O)c1ccccc1C)c1cccc(C(=O)Nc2c(Br)cc(C(F)(C(F)(F)F)C(F)(F)F)cc2OC(F)F)c1OC` [Compound 130], the pest or weed control at 200 ppm in experiment [1], in experiment [2] and in experiment [4] was not below 80% in each case.

For the compound `CCN(C(=O)c1cc(Cl)ccc1F)c1cccc(C(=O)Nc2c(Br)cc(C(F)(C(F)(F)F)C(F)(F)F)cc2OC(F)F)c1OC` [Compound 134], the pest or weed control at 200 ppm in experiment [1], in experiment [2], in experiment [4] and in experiment [3] was not below 80% throughout.

In experiment [4], `CCN(C(=O)c1ccccc1OC(F)(F)F)c1cccc(C(=O)Nc2c(Br)cc(C(F)(C(F)(F)F)C(F)(F)F)cc2OC(F)F)c1OC` [Compound 136] gave a pest or weed control at 200 ppm not below 80%.

Regarding `CCN(C(=O)c1cc(C(F)(F)F)ccc1F)c1cccc(C(=O)Nc2c(Br)cc(C(F)(C(F)(F)F)C(F)(F)F)cc2OC(F)F)c1OC` [Compound 144], the pest or weed control at 200 ppm in experiment [1], in experiment [2] and in experiment [3] was not below 80% each time.

In the case of `CCN(C(=O)c1ccccc1F)c1cccc(C(=O)Nc2c(Cl)cc(C(F)(C(F)(F)F)C(F)(F)F)cc2OC(F)F)c1OC` [Compound 145], the pest or weed control at 200 ppm in experiment [1], in experiment [2], in experiment [4] and in experiment [3] was not below 80% each time.

As for `CCN(C(=O)c1ccccc1C)c1cccc(C(=O)Nc2c(Cl)cc(C(F)(C(F)(F)F)C(F)(F)F)cc2OC(F)F)c1OC` [Compound 146], the pest or weed control at 200 ppm in experiment [1], in experiment [2] and in experiment [4] was not below 80% throughout.

Consider `CCN(C(=O)c1ccc([N+](=O)[O-])cc1)c1cccc(C(=O)Nc2c(Cl)cc(C(F)(C(F)(F)F)C(F)(F)F)cc2OC(F)F)c1OC` [Compound 148], for which the pest or weed control at 200 ppm in experiment [4] and in experiment [3] was not below 80% in each case.

Turning to `CCN(C(=O)c1ccc(F)cc1C)c1cccc(C(=O)Nc2c(Cl)cc(C(F)(C(F)(F)F)C(F)(F)F)cc2OC(F)F)c1OC` [Compound 150], the pest or weed control at 200 ppm in experiment [1], in experiment [2], in experiment [4] and in experiment [3] was not below 80% throughout.

For `CCN(C(=O)c1ccccc1OC(F)(F)F)c1cccc(C(=O)Nc2c(Cl)cc(C(F)(C(F)(F)F)C(F)(F)F)cc2OC(F)F)c1OC` [Compound 153], the pest or weed control at 200 ppm in experiment [4] and in experiment [3] was not below 80% in each case.

In the case of `CCN(C(=O)c1ccc(F)c(C(F)(F)F)c1)c1cccc(C(=O)Nc2c(Br)cc(C(F)(C(F)(F)F)C(F)(F)F)cc2OC(F)F)c1OC` [Compound 163], the pest or weed control at 200 ppm in experiment [2], in experiment [4] and in experiment [3] was not below 80% throughout.

The values above are taken from patent US11445724B2, “Insecticidal compounds” (SYNGENTA PARTICIPATIONS AG, priority 2013, dated 2022).
